system: Echinochloa crus-galli (ECHCG); assay: Herbicidal post-emergence action (D), 320 g/ha; format: in vivo; conditions: ca. 3 weeks
How it was run: (§1)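 Seedlings reaching the single-leaf stage 2 to 3 weeks after sowing in sandy loam received a foliar spray of the formulated compound (WP or EC, 0.5% additive, 600 l water/ha). Damage is rated visually after about 3 weeks in the greenhouse as percent effect relative to untreated plants.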

Compound	herbicidal effect ECHCG [%]
Clc1cc2scnc2nc1-c1sccc1Cl [Example I-189]	90

system: Alopecurus myosuroides (ALOMY); assay: Herbicidal post-emergence action (D), 320 g/ha; format: in vivo; conditions: ca. 3 weeks
How it was run: as §1

Compound	herbicidal effect ALOMY [%]
Clc1cc2scnc2nc1-c1sccc1Cl [Example I-189]	90

system: Abutilon theophrasti (ABUTH); assay: Herbicidal post-emergence action (D), 320 g/ha; format: in vivo; conditions: ca. 3 weeks
How it was run: as §1

Compound	herbicidal effect ABUTH [%]
CCc1cc2sc(OC)nc2nc1-c1ccccc1C [Example I-094]	80
Clc1cc2scnc2nc1-c1sccc1Cl [Example I-189]	80

system: Veronica persica (VERPE); assay: Herbicidal post-emergence action (D), 320 g/ha; format: in vivo; conditions: ca. 3 weeks
How it was run: as §1

Compound	herbicidal effect VERPE [%]
CCc1cc2sc(OC)nc2nc1-c1ccccc1C [Example I-094]	90
Clc1cc2scnc2nc1-c1sccc1Cl [Example I-189]	80

system: Setaria viridis (SETVI); assay: Herbicidal post-emergence action (D), 320 g/ha; format: in vivo; conditions: ca. 3 weeks
How it was run: as §1

Compound	herbicidal effect SETVI [%]
Clc1cc2scnc2nc1-c1sccc1Cl [Example I-189]	90

system: Polygonum convolvulus (POLCO); assay: Herbicidal post-emergence action (D), 320 g/ha; format: in vivo; conditions: ca. 3 weeks
How it was run: as §1

Compound	herbicidal effect POLCO [%]
Clc1cc2scnc2nc1-c1sccc1Cl [Example I-189]	80

system: Echinochloa crus-galli (ECHCG); assay: Herbicidal pre-emergence action (A), 1280 g/ha; format: in vivo; conditions: visual grading after ca. 3 weeks vs untreated controls, 100% = plants have died off, 0% = as control plants
How it was run: (§2)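 Visual grading of plant damage in percent (0% as untreated control, 100% dead) was done about 3 weeks after treatment. Compounds, as WP or EC in water with 0.5% additive, had been sprayed at 600 l/ha onto the covering soil of freshly sown sandy loam pots.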

Compound	ECHCG, herbicidal effect in percent (%)
Clc1cc2scnc2nc1-c1sccc1Cl [Example I-189]	100

system: Amaranthus retroflexus (AMARE); assay: Herbicidal pre-emergence action (A), 1280 g/ha; format: in vivo; conditions: visual grading after ca. 3 weeks vs untreated controls
How it was run: as §2

Compound	herbicidal effect AMARE [%]
CCc1cc2sc(OC)nc2nc1-c1ccccc1C [Example I-094]	100
Clc1cc2scnc2nc1-c1sccc1Cl [Example I-189]	90

system: Kochia scoparia (KCHSC; Bassia scoparia); assay: Herbicidal pre-emergence action (A), 1280 g/ha; format: in vivo; conditions: visual grading after ca. 3 weeks vs untreated controls
How it was run: as §2

Compound	herbicidal effect KCHSC [%]
Clc1cc2scnc2nc1-c1sccc1Cl [Example I-189]	90

system: Alopecurus myosuroides (ALOMY); assay: Herbicidal pre-emergence action (A), 1280 g/ha; format: in vivo; conditions: visual grading after ca. 3 weeks vs untreated controls, 100% = plants have died off, 0% = as control plants
How it was run: as §2

Compound	ALOMY, herbicidal effect in percent (%)
Clc1cc2scnc2nc1-c1sccc1Cl [Example I-189]	90

system: Lolium rigidum (LOLRI); assay: Herbicidal pre-emergence action (A), 1280 g/ha; format: in vivo; conditions: visual grading after ca. 3 weeks vs untreated controls, 100% = plants have died off, 0% = as control plants
How it was run: as §2

Compound	LOLRI, herbicidal effect in percent (%)
Clc1cc2scnc2nc1-c1sccc1Cl [Example I-189]	90

system: Digitaria sanguinalis (DIGSA); assay: Herbicidal pre-emergence action (A), 1280 g/ha; format: in vivo; conditions: visual grading after ca. 3 weeks vs untreated controls, 100% = plants have died off, 0% = as control plants
How it was run: as §2

Compound	DIGSA, herbicidal effect in percent (%)
CCc1cc2sc(OC)nc2nc1-c1ccccc1C [Example I-094]	100

system: Veronica persica (VERPE); assay: Herbicidal pre-emergence action (A), 1280 g/ha; format: in vivo; conditions: visual grading after ca. 3 weeks vs untreated controls
How it was run: as §2

Compound	herbicidal effect VERPE [%]
Clc1cc2scnc2nc1-c1sccc1Cl [Example I-189]	90

system: Poa annua (POAAN); assay: Herbicidal pre-emergence action (A), 1280 g/ha; format: in vivo; conditions: visual grading after ca. 3 weeks vs untreated controls, 100% = plants have died off, 0% = as control plants
How it was run: as §2

Compound	POAAN, herbicidal effect in percent (%)
CCc1cc2sc(OC)nc2nc1-c1ccccc1C [Example I-094]	100
Clc1cc2scnc2nc1-c1sccc1Cl [Example I-189]	100

system: Setaria viridis (SETVI); assay: Herbicidal pre-emergence action (A), 1280 g/ha; format: in vivo; conditions: visual grading after ca. 3 weeks vs untreated controls
How it was run: as §2

Compound	herbicidal effect SETVI [%]
CCc1cc2sc(OC)nc2nc1-c1ccccc1C [Example I-094]	100
Clc1cc2scnc2nc1-c1sccc1Cl [Example I-189]	100

system: Stellaria media (STEME); assay: Herbicidal pre-emergence action (A), 1280 g/ha; format: in vivo; conditions: visual grading after ca. 3 weeks vs untreated controls
How it was run: as §2

Compound	herbicidal effect STEME [%]
CCc1cc2sc(OC)nc2nc1-c1ccccc1C [Example I-094]	100
Clc1cc2scnc2nc1-c1sccc1Cl [Example I-189]	90

system: Matricaria inodora (MATIN); assay: Herbicidal pre-emergence action (A), 1280 g/ha; format: in vivo; conditions: visual grading after ca. 3 weeks vs untreated controls
How it was run: as §2

Compound	herbicidal effect MATIN [%]
CCc1cc2sc(OC)nc2nc1-c1ccccc1C [Example I-094]	100
Clc1cc2scnc2nc1-c1sccc1Cl [Example I-189]	90

system: Echinochloa crus-galli (ECHCG); assay: Herbicidal post-emergence action (B), 1280 g/ha; format: in vivo; conditions: rated visually after about 3 weeks vs untreated controls
How it was run: (§3)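 Greenhouse-grown weeds at the one-leaf stage received a foliar spray of the formulated compound (WP or EC, 0.5% additive, 600 L/ha). Damage was scored visually after about 3 weeks on a 0–100% scale against untreated plants.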

Compound	herbicidal activity ECHCG [%]
CCc1cc2sc(OC)nc2nc1-c1ccccc1C [Example I-094]	100
Clc1cc2scnc2nc1-c1sccc1Cl [Example I-189]	100

system: Amaranthus retroflexus (AMARE); assay: Herbicidal post-emergence action (B), 1280 g/ha; format: in vivo; conditions: rated visually after about 3 weeks vs untreated controls
How it was run: as §3

Compound	herbicidal activity AMARE [%]
CCc1cc2sc(OC)nc2nc1-c1ccccc1C [Example I-094]	100
Clc1cc2scnc2nc1-c1sccc1Cl [Example I-189]	90

system: Kochia scoparia (KCHSC; Bassia scoparia); assay: Herbicidal post-emergence action (B), 1280 g/ha; format: in vivo; conditions: not given
How it was run: as §3

Compound	herbicidal effect KCHSC [%]
CCc1cc2sc(OC)nc2nc1-c1ccccc1C [Example I-094]	100
Clc1cc2scnc2nc1-c1sccc1Cl [Example I-189]	90

system: Alopecurus myosuroides (ALOMY); assay: Herbicidal post-emergence action (B), 1280 g/ha; format: in vivo; conditions: rated visually after about 3 weeks vs untreated controls
How it was run: as §3

Compound	herbicidal activity ALOMY [%]
CCc1cc2sc(OC)nc2nc1-c1ccccc1C [Example I-094]	100

system: Digitaria sanguinalis (DIGSA); assay: Herbicidal post-emergence action (B), 1280 g/ha; format: in vivo; conditions: rated visually after about 3 weeks vs untreated controls
How it was run: as §3

Compound	herbicidal activity DIGSA [%]
CCc1cc2sc(OC)nc2nc1-c1ccccc1C [Example I-094]	100

system: Abutilon theophrasti (ABUTH); assay: Herbicidal post-emergence action (B), 1280 g/ha; format: in vivo; conditions: rated visually after about 3 weeks vs untreated controls
How it was run: as §3

Compound	herbicidal activity ABUTH [%]
CCc1cc2sc(OC)nc2nc1-c1ccccc1C [Example I-094]	100

system: Veronica persica (VERPE); assay: Herbicidal post-emergence action (B), 1280 g/ha; format: in vivo; conditions: not given
How it was run: as §3

Compound	herbicidal effect VERPE [%]
CCc1cc2sc(OC)nc2nc1-c1ccccc1C [Example I-094]	100
Clc1cc2scnc2nc1-c1sccc1Cl [Example I-189]	90

system: Poa annua (POAAN); assay: Herbicidal post-emergence action (B), 1280 g/ha; format: in vivo; conditions: rated visually after about 3 weeks vs untreated controls
How it was run: as §3

Compound	herbicidal activity POAAN [%]
CCc1cc2sc(OC)nc2nc1-c1ccccc1C [Example I-094]	100
Clc1cc2scnc2nc1-c1sccc1Cl [Example I-189]	90

system: Setaria viridis (SETVI); assay: Herbicidal post-emergence action (B), 1280 g/ha; format: in vivo; conditions: rated visually after about 3 weeks vs untreated controls
How it was run: as §3

Compound	herbicidal activity SETVI [%]
CCc1cc2sc(OC)nc2nc1-c1ccccc1C [Example I-094]	100
Clc1cc2scnc2nc1-c1sccc1Cl [Example I-189]	90

system: Stellaria media (STEME); assay: Herbicidal post-emergence action (B), 1280 g/ha; format: in vivo; conditions: not given
How it was run: as §3

Compound	herbicidal effect STEME [%]
CCc1cc2sc(OC)nc2nc1-c1ccccc1C [Example I-094]	100
Clc1cc2scnc2nc1-c1sccc1Cl [Example I-189]	90

system: Matricaria inodora (MATIN); assay: Herbicidal post-emergence action (B), 1280 g/ha; format: in vivo; conditions: rated visually after about 3 weeks vs untreated controls
How it was run: as §3

Compound	herbicidal activity MATIN [%]
CCc1cc2sc(OC)nc2nc1-c1ccccc1C [Example I-094]	100

system: Echinochloa crus-galli (ECHCG); assay: Herbicidal pre-emergence action (C), 320 g/ha; format: in vivo; conditions: ca. 3 weeks
How it was run: (§4)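 Sandy loam pots, seeds covered with soil → WP/EC compound sprayed on soil surface (aq., +0.5% additive, 600 l/ha) → greenhouse, optimum growth → visual herbicidal effect (%) at ca. 3 wk vs untreated.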

Compound	herbicidal effect ECHCG [%]
CCc1cc2sc(OC)nc2nc1-c1ccccc1C [Example I-094]	80
Clc1cc2scnc2nc1-c1sccc1Cl [Example I-189]	100

system: Amaranthus retroflexus (AMARE); assay: Herbicidal pre-emergence action (C), 320 g/ha; format: in vivo; conditions: ca. 3 weeks
How it was run: as §4

Compound	herbicidal effect AMARE [%]
Clc1cc2scnc2nc1-c1sccc1Cl [Example I-189]	80

system: Alopecurus myosuroides (ALOMY); assay: Herbicidal pre-emergence action (C), 320 g/ha; format: in vivo; conditions: ca. 3 weeks
How it was run: as §4

Compound	herbicidal effect ALOMY [%]
Clc1cc2scnc2nc1-c1sccc1Cl [Example I-189]	100

system: Abutilon theophrasti (ABUTH); assay: Herbicidal pre-emergence action (C), 320 g/ha; format: in vivo; conditions: ca. 3 weeks
How it was run: as §4

Compound	herbicidal effect ABUTH [%]
Clc1cc2scnc2nc1-c1sccc1Cl [Example I-189]	80

system: Veronica persica (VERPE); assay: Herbicidal pre-emergence action (C), 320 g/ha; format: in vivo; conditions: ca. 3 weeks
How it was run: as §4

Compound	herbicidal effect VERPE [%]
Clc1cc2scnc2nc1-c1sccc1Cl [Example I-189]	80

system: Setaria viridis (SETVI); assay: Herbicidal pre-emergence action (C), 320 g/ha; format: in vivo; conditions: ca. 3 weeks
How it was run: as §4

Compound	herbicidal effect SETVI [%]
Clc1cc2scnc2nc1-c1sccc1Cl [Example I-189]	100

From patent publication US20230151025A1, “SUBSTITUTED THIAZOLOPYRIDINES, SALTS THEREOF AND THEIR USE AS HERBICIDALLY ACTIVE SUBSTANCES” (Bayer Aktiengesellschaft, priority 2020, published 2023)
